This note sets out measurements from ChEMBL document CHEMBL1123334, “4-Amino-6-chloro-2-piperazinopyrimidines with selective affinity for alpha 2-adrenoceptors” (J Med Chem, 1986).

Assay [1] has as its target T1, Adrenergic receptor alpha-1 (Rattus norvegicus, UniProt P15823+P23944+P43140).
T1 sequence (P15823 whole entry): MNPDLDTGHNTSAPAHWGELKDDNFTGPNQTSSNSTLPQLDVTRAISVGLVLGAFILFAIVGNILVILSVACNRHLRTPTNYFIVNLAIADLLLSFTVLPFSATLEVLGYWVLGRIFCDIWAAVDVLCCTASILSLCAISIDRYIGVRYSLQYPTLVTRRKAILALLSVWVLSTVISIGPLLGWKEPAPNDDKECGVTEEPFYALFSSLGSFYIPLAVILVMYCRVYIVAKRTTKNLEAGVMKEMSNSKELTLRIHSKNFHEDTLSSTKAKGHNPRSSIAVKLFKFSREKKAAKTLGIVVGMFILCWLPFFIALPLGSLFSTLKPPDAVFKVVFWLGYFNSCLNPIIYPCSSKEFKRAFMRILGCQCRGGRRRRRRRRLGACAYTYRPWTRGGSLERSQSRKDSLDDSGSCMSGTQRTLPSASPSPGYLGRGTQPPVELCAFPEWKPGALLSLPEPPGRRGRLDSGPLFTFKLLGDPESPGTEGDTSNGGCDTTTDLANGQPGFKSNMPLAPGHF
T1 sequence (P23944 whole entry): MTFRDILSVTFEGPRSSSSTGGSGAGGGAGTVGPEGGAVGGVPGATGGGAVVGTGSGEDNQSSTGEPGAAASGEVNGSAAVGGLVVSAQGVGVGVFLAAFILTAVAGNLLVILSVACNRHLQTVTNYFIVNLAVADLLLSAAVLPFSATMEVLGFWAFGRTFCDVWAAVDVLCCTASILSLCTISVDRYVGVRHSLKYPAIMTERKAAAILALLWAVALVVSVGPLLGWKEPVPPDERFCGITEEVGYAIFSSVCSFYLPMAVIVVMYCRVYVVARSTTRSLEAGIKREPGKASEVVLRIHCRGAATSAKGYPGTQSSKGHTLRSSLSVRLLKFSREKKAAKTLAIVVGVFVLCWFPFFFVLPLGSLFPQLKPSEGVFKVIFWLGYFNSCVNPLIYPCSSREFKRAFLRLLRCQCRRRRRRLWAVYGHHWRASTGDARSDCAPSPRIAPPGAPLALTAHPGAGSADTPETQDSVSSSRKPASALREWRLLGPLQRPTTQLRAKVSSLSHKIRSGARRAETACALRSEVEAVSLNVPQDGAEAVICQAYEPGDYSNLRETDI
T1 sequence (P43140 whole entry): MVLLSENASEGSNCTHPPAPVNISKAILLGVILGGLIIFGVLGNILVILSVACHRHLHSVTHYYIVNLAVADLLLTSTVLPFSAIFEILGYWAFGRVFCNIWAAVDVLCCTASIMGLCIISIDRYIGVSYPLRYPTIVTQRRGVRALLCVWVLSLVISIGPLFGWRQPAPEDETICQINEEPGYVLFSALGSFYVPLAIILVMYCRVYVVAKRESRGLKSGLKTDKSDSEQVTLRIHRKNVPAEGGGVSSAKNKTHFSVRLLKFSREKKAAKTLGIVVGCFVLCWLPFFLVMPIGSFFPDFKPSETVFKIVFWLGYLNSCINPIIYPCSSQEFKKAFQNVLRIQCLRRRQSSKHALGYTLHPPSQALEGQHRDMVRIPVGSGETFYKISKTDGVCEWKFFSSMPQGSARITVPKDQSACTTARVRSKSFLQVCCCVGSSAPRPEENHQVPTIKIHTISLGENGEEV
In words: In vitro binding affinity was measured as the inhibition of [3H]WB-4101 binding to alpha-1 adrenergic receptor of rat cortical membranes. It is filed as cell membranes, Membrane.

Assay [2] concerns the target T2, Adrenergic receptor alpha-2 (Rattus norvegicus, UniProt P22086+P19328+P22909).
T2 sequence (P22086 whole entry): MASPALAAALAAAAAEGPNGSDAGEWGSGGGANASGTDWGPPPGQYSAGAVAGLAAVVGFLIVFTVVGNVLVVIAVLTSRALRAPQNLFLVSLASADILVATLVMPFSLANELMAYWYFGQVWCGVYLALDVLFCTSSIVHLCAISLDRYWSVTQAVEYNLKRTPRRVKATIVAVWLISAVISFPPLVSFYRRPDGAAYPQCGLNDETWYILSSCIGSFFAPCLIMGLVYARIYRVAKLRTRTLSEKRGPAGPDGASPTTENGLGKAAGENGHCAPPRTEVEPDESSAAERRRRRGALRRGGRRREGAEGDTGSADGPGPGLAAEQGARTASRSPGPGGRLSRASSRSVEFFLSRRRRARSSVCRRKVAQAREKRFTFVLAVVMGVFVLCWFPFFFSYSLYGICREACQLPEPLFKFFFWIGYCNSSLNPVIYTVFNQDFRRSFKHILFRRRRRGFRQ
T2 sequence (P19328 whole entry): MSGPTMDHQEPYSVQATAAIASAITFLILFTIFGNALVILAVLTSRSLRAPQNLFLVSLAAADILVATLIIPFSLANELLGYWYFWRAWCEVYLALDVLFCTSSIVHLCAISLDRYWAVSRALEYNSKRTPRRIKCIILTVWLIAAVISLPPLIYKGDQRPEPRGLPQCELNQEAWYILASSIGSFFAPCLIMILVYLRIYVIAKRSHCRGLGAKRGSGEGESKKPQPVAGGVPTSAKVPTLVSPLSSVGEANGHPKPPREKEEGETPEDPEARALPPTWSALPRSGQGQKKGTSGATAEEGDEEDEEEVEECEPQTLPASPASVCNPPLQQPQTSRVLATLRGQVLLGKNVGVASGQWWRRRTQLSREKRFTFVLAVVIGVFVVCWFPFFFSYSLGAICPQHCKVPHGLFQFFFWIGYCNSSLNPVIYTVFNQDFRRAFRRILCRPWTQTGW
T2 sequence (P22909 whole entry): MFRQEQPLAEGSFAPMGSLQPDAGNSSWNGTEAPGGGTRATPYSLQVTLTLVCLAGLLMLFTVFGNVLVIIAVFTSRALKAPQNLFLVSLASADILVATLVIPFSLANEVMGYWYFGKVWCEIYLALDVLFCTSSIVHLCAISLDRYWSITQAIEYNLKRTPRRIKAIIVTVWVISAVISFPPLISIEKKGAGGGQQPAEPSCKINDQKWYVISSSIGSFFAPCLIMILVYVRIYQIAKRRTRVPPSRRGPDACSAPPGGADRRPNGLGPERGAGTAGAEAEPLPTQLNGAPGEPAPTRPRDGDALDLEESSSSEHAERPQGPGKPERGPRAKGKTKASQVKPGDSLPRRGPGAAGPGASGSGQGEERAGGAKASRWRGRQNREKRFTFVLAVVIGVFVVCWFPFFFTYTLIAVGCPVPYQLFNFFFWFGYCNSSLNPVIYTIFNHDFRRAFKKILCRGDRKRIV

For assay [3], the target named is T2, Adrenergic receptor alpha-2. The assay can be described thus: Inhibition of [3H]idazoxan binding to alpha-2 adrenergic receptor of rat cortical membranes. The assay is classed as cell membranes, Membrane.
The target in assay [4] is Dopamine receptor. In words: In vitro binding affinity to Dopamine receptors of rat striatal membranes by [3H]spiroperidol displacement.
Assay [5] has as its target T2, Adrenergic receptor alpha-2. In words: In vitro binding affinity was measured as the inhibition of [3H]idazoxan to alpha-2 adrenergic receptors of rat cortical membranes. The assay is classed as cell membranes, Membrane.

As for `CNc1nc(N2CCN(C)CC2)nc(Cl)c1SC`, the inhibitory constant (Ki) in assay [1] stood at 1800 nM; in assay [2] it was 360 nM.
In the same order, the values of `CCNc1nc(N2CCN(C)CC2)nc(Cl)c1SC` are 1800 nM and 90 nM.
In the case of `CSc1c(Cl)nc(N2CCNCC2)nc1NC(C)C`, the inhibition constant Ki in assay [3] was determined as 62 nM; in assay [1] it was 500 nM; in assay [4], 3000 nM; in assay [2], 36 nM.
Consider `COc1c(Cl)nc(N2CCN(C)CC2)nc1NC1CCCC1`, for which the inhibition constant Ki in assay [3] is on record as 29 nM; in assay [1] it was 1700 nM; in assay [4] it was 670 nM; in assay [2] it was 50 nM.
Take `CSc1c(Cl)nc(N2CCN(C)CC2)nc1NC1CCCC1`: the inhibition constant (Ki) in assay [1] is given as 76 nM; in assay [4], 1200 nM; in assay [2] it was 22 nM.
Turning to `CC(C)Nc1cc(Cl)nc(N2CCN(C)CC2)n1`, the Ki in assay [5] is 200 nM; in assay [1], more than 180 nM; in assay [2], 130 nM.
As for `CSc1c(Cl)nc(N2CCN(C)CC2)nc1NC(C)(C)C`, the inhibition constant Ki in assay [1] came out at 450 nM; in assay [4], 920 nM; in assay [2] it was 180 nM.
Turning to `CNc1nc(N2CCN(C)CC2)nc(Cl)c1OC`, the Ki in assay [1] is reported as 1700 nM; in assay [2] it was 150 nM.
Consider `CSc1c(N)nc(N2CCN(C)CC2)nc1Cl`, for which the Ki in assay [1] turned out to be 820 nM; in assay [4], 1000 nM; in assay [2], 620 nM.
`CNc1nc(N2CCN(C)CC2)nc(Cl)c1Br`: the Ki in assay [1] worked out at 180 nM; in assay [4], 200 nM; in assay [2] it was 150 nM.
As to `CSc1c(Cl)nc(N2CCN(C)CC2)nc1NCc1ccccc1`, the inhibition constant (Ki) in assay [1] is listed as 100 nM; in assay [4] it was 14 nM; in assay [2], 1500 nM.
On to `Cc1c(Cl)nc(N2CCNCC2)nc1NC(C)C`, for which the Ki in assay [3] was 13 nM; in assay [1], 860 nM; in assay [4], 2900 nM; in assay [2], 6 nM.
For `CC(C)Nc1nc(N2CCN(C)CC2)nc(Cl)c1Cl`, the inhibition constant Ki in assay [5] is recorded as 14 nM; in assay [1] it was 42 nM; in assay [4] it was 2400 nM; in assay [2] it was 5 nM.
Turning to `CSc1c(Cl)nc(N2CCN(C)CC2)nc1NC1CCCCC1`, the inhibitory constant (Ki) in assay [1] is 240 nM; in assay [2] it was 290 nM.
Regarding `CC(C)Nc1nc(N2CCNCC2)nc(Cl)c1Br`, the inhibition constant Ki in assay [3] worked out at 28 nM; in assay [1], 200 nM; in assay [4], 880 nM; in assay [2], 16 nM.
In the case of `COc1c(Cl)nc(N2CCN(C)CC2)nc1NC(C)C`, the inhibition constant (Ki) came out at 310 nM in assay [1] and 50 nM in assay [2].
In the case of `CN1CCN(c2nc(N)c(Cl)c(Cl)n2)CC1`, the inhibitory constant (Ki) in assay [1] turned out to be 67 nM; in assay [2] it was 50 nM.
For `CN1CCN(c2nc(Cl)c(Cl)c(NC3CCCC3)n2)CC1`, the Ki in assay [5] was determined as 97 nM; in assay [1] it was 240 nM; in assay [2], 120 nM.
Take `CNc1nc(N2CCN(C)CC2)nc(Cl)c1Cl`: the inhibition constant (Ki) was 4 nM in assay [1], 1200 nM in assay [4] and 44 nM in assay [2].
`CC(C)Nc1nc(N2CCN(C)CC2)nc(Cl)c1Br`: the Ki in assay [1] is reported as 290 nM; in assay [4], 480 nM; in assay [2] it was 7 nM.
With `Cc1c(Cl)nc(N2CCN(C)CC2)nc1NC(C)C`, the Ki in assay [1] stood at 200 nM; in assay [4] it was 880 nM; in assay [2], 16 nM.
For `CN1CCN(c2nc(N)c(Br)c(Cl)n2)CC1`, the Ki in assay [1] came out at 820 nM; in assay [4] it was 10000 nM; in assay [2], 1600 nM.
Consider `CN1CCN(c2nc(Cl)c(Br)c(NC3CCCC3)n2)CC1`, for which the values for the Ki in assay [3], in assay [1] and in assay [2] were 230 nM, 250 nM and 140 nM, respectively.
With `CSc1c(Cl)nc(N2CCN(C)CC2)nc1NCCc1ccccc1`, the Ki worked out at 180 nM in assay [1], 1400 nM in assay [4] and 910 nM in assay [2].
With `CSc1c(Cl)nc(N2CCN(C)CC2)nc1Nc1ccccc1`, the Ki is listed as 500 nM in assay [3], 140 nM in assay [1] and 240 nM in assay [2].
Take `CNc1cc(Cl)nc(N2CCN(C)CC2)n1`: the Ki came to 100 nM in assay [3], 280 nM in assay [1], 630 nM in assay [4] and 50 nM in assay [2].
Take `CSc1c(Cl)nc(N2CCN(C)CC2)nc1NC(C)C`: the Ki in assay [1] is 360 nM; in assay [4] it was 640 nM; in assay [2], 26 nM.
In turn, `Clc1cccc(Cl)c1NC1=NCCN1` [CLONIDINE] came in with an inhibitory constant (Ki) in assay [4] of more than 4000 nM.
Turning to `CNc1nc(Cl)c(SC)c(N2CCN(C)CC2)n1` [MEZILAMINE], the values for the inhibition constant (Ki) in assay [3], in assay [1] and in assay [2] were 12 nM, 91 nM and 9 nM, respectively.
For `CC(COc1ccccc1)N(CCCl)Cc1ccccc1` (stereo not drawn) [PHENOXYBENZAMINE], the Ki in assay [1] was 1.8 nM; in assay [4] it was 120 nM.
Consider `COC(=O)[C@@H]1[C@H]2C[C@H]3c4[nH]c5ccccc5c4CCN3C[C@@H]2CC[C@@H]1O` [YOHIMBINE], for which the inhibition constant (Ki) in assay [4] turned out to be 2000 nM.

In general, Ki refers to the dissociation constant of the complex between target and ligand, obtained from inhibition or displacement. A high value points to weaker binding.
